Where a name gives a salt, the structure may show the parent alone.
Experiments:
[1] = molecular target: T1, cyclo-oxygenase (Bos taurus, UniProt O62664); assay: Cyclo-oxygenase inhibition, conversion of arachidonic acid to prostaglandin E2 in bovine seminal vesicle homogenates; assay type: biochemical; conditions: arachidonic acid to prostaglandin E2, 1-30 minutes, read-out: COX Inhibition IC50
T1 construct: from tissue; host or cells: bovine seminal vesicles (cellular homogenate)
T1 sequence (O62664 25-600): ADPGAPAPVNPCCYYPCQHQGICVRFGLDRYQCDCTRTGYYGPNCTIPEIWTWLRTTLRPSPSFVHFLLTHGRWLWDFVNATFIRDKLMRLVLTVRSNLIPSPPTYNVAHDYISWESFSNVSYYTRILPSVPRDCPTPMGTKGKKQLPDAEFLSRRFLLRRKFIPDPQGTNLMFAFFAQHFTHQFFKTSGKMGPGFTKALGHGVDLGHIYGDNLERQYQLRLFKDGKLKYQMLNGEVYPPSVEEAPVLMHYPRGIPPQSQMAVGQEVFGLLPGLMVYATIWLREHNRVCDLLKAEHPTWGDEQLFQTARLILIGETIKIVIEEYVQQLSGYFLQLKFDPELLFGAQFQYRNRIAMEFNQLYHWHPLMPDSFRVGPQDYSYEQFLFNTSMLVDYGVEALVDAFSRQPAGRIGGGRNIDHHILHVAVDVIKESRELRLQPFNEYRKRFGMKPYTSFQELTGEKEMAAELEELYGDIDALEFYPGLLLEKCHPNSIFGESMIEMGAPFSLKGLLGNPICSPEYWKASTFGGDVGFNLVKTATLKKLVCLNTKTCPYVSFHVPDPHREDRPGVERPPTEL
Experimental: Cellular homogenates of bovine seminal vesicles were incubated with arachidonic acid and the production of prostaglandins was monitored.

[2] = molecular target: T2, glycated albumin (Mus musculus, UniProt P07724); assay: Prevention of albumin glycation in vivo, plasma glycated albumin by ELISA; conditions: mice; for Glycated Albumin, Percent change: post vs pre-treatment; for Glycated Albumin, Post-treatment: four hours after last dosing; for Glycated Albumin, Pre-treatment: before treatment
T2 construct: from tissue; host or cells: mouse plasma (in vivo dosing)
Description: Blood was taken before the initiation of treatment and four hours after the last dosing at the conclusion of the treatment.

[3] = molecular target: T3, Human albumin (Homo sapiens, UniProt P02768); assay: Anti-glycation activity of 2-(phenylamino)phenylacetic acids (glycated albumin ELISA); assay type: biochemical; conditions: for IC50: human albumin 10 mg/ml, 0-50 mM glucose, 48-144 hours, 37° C., read-out: Glycation Inhibition IC50; for Antiglycation IC50 versus COX Inhibition IC50 (ratio): ratio of glycation IC50 to cyclo-oxygenase IC50
Experimental: After dialysis to remove free glucose and compound, the amount of glycated albumin formed was determined by enzyme-linked immunosorbent assay using the monoclonal antibodies known to specifically react with Amadori-glucose adducts in glycated albumin and to be unreactive with the nonglycated protein. The presence of glucose in the incubations promotes the nonenzymatic glycation of albumin, and the performance of paired incubations allows comparison of the amount of glycated albumin formed under control (0 glucose), stimulated (25-50 mM glucose), and inhibited (compound plus glucose) conditions.

[4] = molecular target: T3, Human albumin; assay: Prevention of albumin glycation at physiologically significant sites (ELISA with anti-glycated albumin monoclonal antibody); assay type: biochemical; conditions: for IC50: human albumin 10 mg/ml, 40 mM glucose, 4 days, compound 1-1000 μM
Experimental: The performance of paired incubations allowed comparison of the amount of glycated albumin formed under control (0 mM glucose), stimulated (40 mM glucose) and inhibited (test compound plus glucose) conditions.

[5] = system: Mice; assay: Urine protein excretion after 8 weeks of treatment; assay type: in vivo
Experimental: Mice were treated for 8 weeks with 10 mg/kg/day of 2-(3-chlorophenylamino) phenylacetic acid in divided doses. Urine samples were obtained at the initiation and termination of treatment for examination of protein excretion, which measures vascular dysfunction that is associated with glycation-related pathology As shown below, the reduction in glycated albumin was associated with a reduction in urine protein excretion.

[6] = 5 mg/kg/day intraperitoneal for 5 days
[7] = 5 mg/kg/day intraperitoneal in divided doses for 5 days
[8] = 10 mg/kg/day intraperitoneal for 5 days
[9] = 10 mg/kg/day intraperitoneal in divided doses for 5 days

T2 sequence (P07724 25-608): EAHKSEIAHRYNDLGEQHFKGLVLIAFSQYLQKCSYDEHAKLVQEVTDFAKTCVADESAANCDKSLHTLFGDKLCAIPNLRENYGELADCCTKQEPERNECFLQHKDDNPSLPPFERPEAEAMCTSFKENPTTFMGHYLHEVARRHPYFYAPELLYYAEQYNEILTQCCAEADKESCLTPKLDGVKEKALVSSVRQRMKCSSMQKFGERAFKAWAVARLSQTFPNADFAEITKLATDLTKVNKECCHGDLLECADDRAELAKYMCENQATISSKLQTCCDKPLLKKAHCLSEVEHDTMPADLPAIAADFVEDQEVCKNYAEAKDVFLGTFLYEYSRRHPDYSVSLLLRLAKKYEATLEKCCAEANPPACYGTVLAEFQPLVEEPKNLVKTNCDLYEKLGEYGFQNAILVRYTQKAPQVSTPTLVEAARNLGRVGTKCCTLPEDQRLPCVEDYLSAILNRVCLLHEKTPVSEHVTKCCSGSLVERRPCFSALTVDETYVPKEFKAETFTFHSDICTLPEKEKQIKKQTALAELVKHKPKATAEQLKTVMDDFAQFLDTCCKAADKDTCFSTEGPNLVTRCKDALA
T3 sequence (P02768 25-609): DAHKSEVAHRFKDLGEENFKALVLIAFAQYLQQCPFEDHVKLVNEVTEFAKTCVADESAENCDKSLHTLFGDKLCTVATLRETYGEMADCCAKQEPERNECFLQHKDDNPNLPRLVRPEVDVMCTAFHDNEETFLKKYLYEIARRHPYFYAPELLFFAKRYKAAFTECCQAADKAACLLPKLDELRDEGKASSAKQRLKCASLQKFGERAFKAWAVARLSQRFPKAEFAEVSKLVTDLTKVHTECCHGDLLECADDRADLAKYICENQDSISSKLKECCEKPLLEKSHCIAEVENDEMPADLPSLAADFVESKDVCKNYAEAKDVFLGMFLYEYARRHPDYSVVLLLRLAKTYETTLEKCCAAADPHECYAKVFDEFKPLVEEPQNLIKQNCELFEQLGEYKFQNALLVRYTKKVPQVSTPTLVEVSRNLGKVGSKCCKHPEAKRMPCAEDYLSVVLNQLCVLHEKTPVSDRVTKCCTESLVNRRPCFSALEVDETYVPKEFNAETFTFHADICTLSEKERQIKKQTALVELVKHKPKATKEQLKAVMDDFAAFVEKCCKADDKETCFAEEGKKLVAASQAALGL

SMILES	IC50 [1]	IC50 [3]	Antiglycation IC50 versus COX Inhibition IC50 (ratio) [3]	other results
O=C(O)Cc1ccccc1Nc1cccc(Cl)c1 [Example 5, 2-[(3-chlorophenyl)amino]phenylacetic acid]	600 µM	50 µM	0.08	Glycated Albumin, Percent change [2, 6]: −18.4%; Glycated Albumin, Post-treatment [2, 7]: 697 µg/mL; Glycated Albumin, Percent change [2, 8]: −45.6%; Glycated Albumin, Post-treatment [2, 9]: 352 µg/mL; Glycated Albumin, Pre-treatment ([2]; 5 mg/kg/day group): 854 µg/mL; Glycated Albumin, Pre-treatment ([2]; 10 mg/kg/day group): 647 µg/mL; ability to prevent glycation of the physiologically important sites ([4]; comparison among the compounds of Table 1): greatest ability to prevent glycation; IC50 [4]: 0.015 mM; Urine protein, Termination ([5]; after 8 weeks of 10 mg/kg/day in divided doses): 2.7 μg/24 hrs; Urine protein, Initiation ([5]; at initiation of treatment (baseline)): 7.6 μg/24 hrs
O=C(O)Cc1ccccc1Nc1cccc(Cl)c1 (as salt: salt) [Example 5, 2-[(3-chlorophenyl)amino]phenylacetic acid]	–	–	–	melting point: 102 to 103 °C
CC1=C(CC(=O)O)c2cc(F)ccc2/C1=C\c1ccc([S+](C)[O-])cc1 (stereo not drawn) [[Z]-5-fluoro-2-methyl-1 [p-(methylsulfinyl)phenyl] (methylene-1H-indene-3-acetic acid, reference compound]	–	–	–	IC50 [4]: 22 mM
Cc1cccc(C)c1Nc1ccccc1CC(=O)O [Example 13, 2-[(2,6-dimethylphenyl)amino]phenylacetic Acid]	6 µM	112 µM	19.0	–
O=C(O)Cc1ccccc1Nc1ccccc1 [Example 3, 2-[(phenyl)amino]phenylacetic acid]	288 µM	155 µM	0.54	–
O=C(O)Cc1ccccc1Nc1ccc(Cl)c(Cl)c1 [Example 11, 2-[(3,4-dichlorophenyl)amino]phenylacetic acid]	141 µM	2.5 µM	0.02	–
O=C(O)Cc1ccccc1Nc1ccc(Cl)cc1 [Example 6, 2-[(4-chlorophenyl)amino]phenylacetic acid]	98 µM	11 µM	0.11	–
O=C(O)Cc1ccccc1Nc1ccc(Cl)cc1Cl [Example 8, 2-[(2,4-dichlorophenyl)amino]phenylacetic acid]	71 µM	63 µM	0.90	–
O=C(O)Cc1ccccc1Nc1ccccc1Cl [Example 4, 2-[(2-chlorophenyl)amino]phenylacetic acid]	42 µM	10 µM	0.24	Glycated Albumin, Percent change [2, 6]: −32.5%; Glycated Albumin, Post-treatment [2, 7]: 500 µg/mL; Glycated Albumin, Percent change [2, 8]: −47.7%; Glycated Albumin, Post-treatment [2, 9]: 426 µg/mL; Glycated Albumin, Pre-treatment ([2]; 5 mg/kg/day group): 741 µg/mL; Glycated Albumin, Pre-treatment ([2]; 10 mg/kg/day group): 815 µg/mL

Reference: patent US6552077B2, “Albumin-binding compounds that prevent nonenzymatic glycation and that may be used for treatment of glycation-related pathologies” (Exocell, Inc., priority 1996, dated 2003)
